Measurements: patent US20110190379A1 (priority 2008, published 2011)
“And” between values parts separate entries of the source, which are not always exact repeats. Equal values may be shown once. Read-outs that look alike come from different tables or passages of the source.

Tests used:
wheat leaves = conditions: in vivo
[1] = system: Arabidopsis seed germination; type: in vivo
F. graminearum [2] = type: in vivo
F. graminearum [3] = type: in vivo; remark: listed apart in the source
F. graminearum [4] = conditions: in vivo
F. graminearum [5] = conditions: in vivo; remark: listed apart in the source

CC1=C[C@H]2O[C@@H]3[C@H](O)C[C@](C)([C@@]2(CO)[C@H](O)C1=O)[C@]31CO1 [DON, deoxynivalenol]
cell death about the inoculation point (trypan blue) (wheat leaves): extensive cell death
size of lesions (DON-induced cell death) (wheat leaves): 0.127 cm^2 and 0.066 cm^2
effect on seed germination ([1]; FIG. 6): inhibits seed germination

C=C1C[C@]23C[C@@]1(O)CC[C@H]2[C@@]12C=C[C@H](O)[C@@](C)(C(=O)O1)[C@H]2[C@@H]3C(=O)O [GA, Gibberellic Acid]
effect on DON inhibition of seed germination ([1]; FIG. 7): can reverse the inhibitory effect of DON

C=C [ethylene]
lesion size (F. graminearum [2]; wheat (Hobbit 'sib') leaves, ethephon 50 mM or silver thiosulphate 150 μm in agar): did not markedly alter
conidial production (F. graminearum [2]; wheat leaves, 7 days, ET P=0.05, reduced ET perception (silver) P=0.003): significantly greater
lesion size (F. graminearum [3]; barley (Golden promise) leaves, ethephon 50 mM or silver thiosulphate 150 μm in agar): did not markedly alter
conidial production (F. graminearum [3]; barley leaves, 7 days, ET P=0.005, reduced ET perception (silver) P=0.043): significantly greater
conidial production (F. graminearum [4]): enhanced susceptibility
disease severity (F. graminearum [4]): enhanced susceptibility

silver ions
conidial production (F. graminearum [2]; in vivo): significantly reduced
lesion size (F. graminearum [2]; in vivo): did not markedly alter
conidial production (F. graminearum [3]; in vivo): significantly reduced
lesion size (F. graminearum [3]; in vivo): did not markedly alter
AUDPC versus water treated heads (F. graminearum [5]): significantly lower
disease development reduced versus water (F. graminearum [5]): 12-88%

silver thiosulphate
conidial production (F. graminearum [4]): enhanced resistance
disease severity (F. graminearum [4]): enhanced resistance
